Laboratory results published in patent publication US11319305B2, “Pyrimidine sulfamide derivative and preparation method and medical application thereof” (SHIJIAZHUANG SAGACITY NEW DRUG DEVELOPMENT CO., LTD., priority 2017, dated 2022).

Key:
[1] = biological target: T1, human ETA receptor (Homo sapiens, UniProt P25101); assay: In vitro antagonistic effect against human ETA receptor, Ca2+ signal in SK-N-MC cells; format: cell-based; settings: for IC50: SK-N-MC cells, response to 1 nM endothelin-1; for ETA/ETB selectivity: ratio of ETB IC50 to ETA IC50
T1 construct: endogenously expressed human ETA receptors in SK-N-MC cells; host or cells: SK-N-MC cells
T1 sequence (P25101 21-427): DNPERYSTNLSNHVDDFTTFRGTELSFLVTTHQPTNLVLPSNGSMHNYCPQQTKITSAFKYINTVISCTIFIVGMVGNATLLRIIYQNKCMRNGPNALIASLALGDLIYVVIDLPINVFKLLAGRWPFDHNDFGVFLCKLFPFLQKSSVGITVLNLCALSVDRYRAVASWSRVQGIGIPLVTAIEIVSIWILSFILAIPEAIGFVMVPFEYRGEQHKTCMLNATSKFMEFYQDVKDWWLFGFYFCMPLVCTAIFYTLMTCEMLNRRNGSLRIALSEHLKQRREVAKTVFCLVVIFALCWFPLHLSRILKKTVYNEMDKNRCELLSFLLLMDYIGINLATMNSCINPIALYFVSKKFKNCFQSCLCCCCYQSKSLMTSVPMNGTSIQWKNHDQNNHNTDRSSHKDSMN
Description: Experimental Embodiment 1: In Vitro Test of Antagonistic Effect Against Human ETA Receptor
Antagonistic activity of the compounds against endogenously expressed human ETA receptors in SK-N-MC cells was evaluated by measuring the effect of compounds on the changes in cytoplasmic Ca^2+ ion signal induced by human ETA receptor agonists using fluorescence detection methods. The functional activity of the ETA receptor antagonistic effect was tested in Eurofins-Cerep SA according to current standard procedures.
1. Cells were suspended in Dulbecco's modified Eagle medium solution (DMEM, Invitrogen) supplemented with 1% FCSd, then distributed in 384-well plate (100 μL/well) at a density of 5×10^4 cells/well;
2. Probenecid in Hank's balanced salt solution (HBSS, Invitrogen) supplemented with 20 mM 4-(2-hydroxyethyl)piperazine-1-ethanesulfonic acid (Hepes, Invitrogen) (pH 7.4) was mixed with fluorescent probe (Fluo4 NW, Invitrogen), the mixture was added to each wells, then balanced with cells at 37° C. for 60 minutes, and then balanced with cells at 22° C. for 15 minutes;
3. The test plate was placed in a microplate reader (CellLux, PerkinElmer), a DMSO solution or HBSS buffer with an appropriate concentration of the test compound and the positive control was added, and 1 nM endothelin-1 or HBSS buffer (base control) was added after 5 minutes, and then the change in fluorescence intensity proportional to the concentration of Ca^2+ ions of free […] was measured;
5. Standard positive control was BQ-123, several concentrations were tested in each experiments. The data was analyzed using Prism to generate a concentration-response curve, and IC50 values of the compounds were calculated.

[2] = Pharmacokinetics in SD rats; format: in vivo; settings: male, Sprague-Dawley, rat, plasma; for half-life / clearance: intravenous injection 2 mg/kg; for clearance: iv, 2 mg/kg, read-out: Plasma clearance rate
Source text: Experimental Embodiment 6: Evaluation on the Pharmacokinetic of the Compounds in Rats
SD male rats were selected as the test animals in this study, and the drug concentration in plasma of the rats at different time points via intravenous injection or oral gastric administration of the test compound was quantitatively measured using LC/MS/MS method to evaluate the pharmacokinetic characteristics of the test compounds in rats.
Sprague Dawley (SD) rats (male, 200-300 g, 7-10 weeks old, Beijing Viton Lihua or Shanghai Slake).
A clear solution of the test compound was injected into SD rats via the tail vein (overnight fasting), or administrated orally by gavage (overnight fasting). For intravenous administration, 200 μL of jugular blood was collected via vein puncture at 0 hour (pre-dosing) and at 0.0833, 0.25, 0.5, 1, 2, 4, 6, 8 and 24 hours after dosing, which was then placed in an anticoagulation tube supplemented with EDTA-K2 (Suzuki Healthcare Medical Co., Ltd.). The mixture in the anticoagulation tube was vortexed to mix thoroughly at 4° C., and then centrifuged at 13000 rpm for 10 minutes to collect the plasma. For oral gavage administration, 200 μL of jugular blood was collected via vein puncture at 0 hour (pre-dosing) and at 0.5, 1, 2, 4, 6, 8 and 24 hours after dosing, which was then placed in an anticoagulation tube supplemented with EDTA-K2 (Suzuki Healthcare Medical Co., Ltd.). The mixture in the anticoagulation tube was vortexed to mix thoroughly, and then centrifuged at 13000 rpm for 10 minutes to collect the plasma. Plasma drug concentration was measured by LC/MS/MS method, and related pharmacokinetic parameters were calculated using WinNonlin™ Version 6.3 (Pharsight, Paul View, Calif.) pharmacokinetics software in non-room model linear logarithmic trapezoids method.

[3] = Pharmacokinetics in beagle dogs; format: in vivo
Source text: Experimental embodiment 7: Evaluation on the pharmacokinetic of compounds in beagle dogs
Male beagle dogs were selected as the tested animals in this study, and the drug concentration in plasma of beagle dogs at different time points via intravenous injection or oral perfusion gastric administration of the test compounds was quantitatively measured using LC/MS/MS method to evaluate the pharmacokinetic characteristics of the test compounds in beagle dogs.
Beagle dog (male, 6-15 kg, more than 6 months old, Beijing Marshall Biotechnology Co., Ltd.).
A clear solution of the test compound was injected intravenously into beagle dogs (overnight fasting), or administrated orally to beagle dogs by gavage (overnight fasting). For intravenous administration, 500 μL of blood was collected from peripheral vessels at 0 hour (pre-dosing) and at 0.0833, 0.25, 0.5, 1, 2, 4, 6, 8 and 24 hours after dosing, which was then placed in an anticoagulation tube supplemented with EDTA-K2 (Suzuki Healthcare Medical Co., Ltd.). For oral gastric administration, 500 μL of blood was collected from peripheral vessels at 0 hour (pre-dosing) and at 0.25, 0.5, 1, 2, 4, 6, 8 and 24 hours after dosing, which was then placed in an anticoagulation tube supplemented with EDTA-K2. The mixture in the anticoagulation tube was vortexed to mix thoroughly, and then centrifuged at 13000 rpm for 10 minutes to collect the plasma. Plasma drug concentration was measured by LC/MS/MS method, and related pharmacokinetic parameters were calculated using WinNonlin™ Version 6.3 (Pharsight, Paul View, Calif.) pharmacokinetics software in non-room model linear logarithmic trapezoids method.

[4] = male, dog, plasma, intravenous injection 1 mg/kg

Row | Structure (SMILES) | IC50 [1] | ETA/ETB selectivity [1] | half-life [2] | clearance [2] | The area under the plasma concentration time curve ([3]; intravenous injection 1 mg/kg) | bioavailability ([3]; male, beagle, dog, plasma, po, 3 mg/kg, oral administration 3 mg/kg, read-out: Bioavailability F) | half-life [3, 4] | Peak concentration ([3]; oral administration 3 mg/kg) | Peak time ([3]; oral administration 3 mg/kg) | The area under the plasma concentration time curve ([3]; oral administration 3 mg/kg) | Bioavailability F ([3]; oral administration 3 mg/kg, 3 mg/kg) | bioavailability ([2]; po, 10 mg/kg, oral administration 10 mg/kg) | Plasma clearance rate ([3]; intravenous injection 1 mg/kg, 1 mg/kg) | clearance ([3]; male, beagle, dog, plasma, iv, 1 mg/kg, intravenous injection 1 mg/kg, read-out: Plasma clearance rate)
1 | NS(=O)(=O)Nc1ncnc(OCCOc2ncc(Br)cn2)c1-c1ccc2c(c1)OCO2 [WX001] | 2.8 nM | 30300 | 1.26 h | < 5 mL/min/kg | 46.94 µM·h | > 50% | 2.31 h | 16.20 µM | 0.38 h | 73.77 µM·h | 52.4% | – | – | –
2 | COCCNS(=O)(=O)Nc1ncnc(OCCOc2ncc(Br)cn2)c1-c1ccc2c(c1)OCO2 [WX013] | 1.4 nM | 47100 | 1.14 h | < 5 mL/min/kg | 7.56 µM·h | – | 0.86 h | 12.75 µM | 0.38 h | 33.40 µM·h | – | > 70% | 4.79 mL/min/kg | < 5 mL/min/kg
